Here are results for one compound from paper PMC7814697 (The Journal of organic chemistry, 2019).

Values after ≈ are worked out from the molar mass of the structure shown.

A word on the MIC: it is the least concentration at which growth counts as inhibited.

Test [1] deals with Bacillus subtilis ATCC 6051. Description: Minimum inhibitory concentration. The class given is cell-based. To be noted: ATCC6051, read-out: MIC, Bacillus subtilis ATCC 6051.
For test [2], the system named is Gram-positive bacteria (S. aureus, S. epidermidis, and B. subtilis). Description: MIC assays summarised across the Gram-positive bacteria. The note with it: MIC without versus with 0.002% polysorbate 80. The test is classed as cell-based.

For `CN[C@H](CC(C)C)C(=O)N[C@H]1C(=O)N[C@@H](CC(N)=O)C(=O)N[C@H]2C(=O)N[C@H]3C(=O)N[C@H](C(=O)N[C@H](C(=O)O)c4cc(O)cc(O)c4-c4cc3ccc4O)[C@H](O)c3ccc(c(Cl)c3)Oc3cc2cc(c3O[C@@H]2O[C@H](CO)[C@@H](O)[C@H](O)[C@H]2O[C@H]2C[C@](C)(N)[C@H](O)[C@H](C)O2)Oc2ccc(cc2Cl)[C@H]1O` [vancomycin], the minimal inhibitory concentration (MIC) in test [1] is 0.5 µg/mL (≈ 0.345 µM). The “decrease in the MIC with 0.002% polysorbate 80” value in test [2] is recorded as “modest two-fold decrease”.
